PubChem BioAssay AID330 (DTP/NCI, 2004)
Several values for one entry are separate records, joined by “and”; a condition that tells them apart may be missing. Equal values may be shown once. Toxic doses and inconclusive results are not listed.

Tested on: P388 leukemia ip, CD2F1 mice, survival T/C
Test: NCI In Vivo Anticancer Drug Screen. Data for tumor model P388 Leukemia (intraperitoneal) in CD2F1 (CDF1) mice
Details: endpoint: median survival time, higher = longer survival
Outline: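 Mice carrying the transplanted tumor received test compound or vehicle. Survival was recorded in each group, and the value is the treated-group measurement divided by that of the vehicle-treated control group.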

[1] = dose: 1.56 mg/kg/injection, schedule: Q01DX009 (ip), vehicle: Klucel (hydroxypropylcellulose) (HPC)
[2] = dose: 6.25 mg/kg/injection, schedule: Q01DX009 (ip), vehicle: Klucel (hydroxypropylcellulose) (HPC)
[3] = dose: 50.0 mg/kg/injection, schedule: Q01DX009 (ip), vehicle: Klucel (hydroxypropylcellulose) (HPC)
[4] = dose: 100.0 mg/kg/injection, schedule: Q01DX009 (ip), vehicle: Klucel (hydroxypropylcellulose) (HPC)
[5] = dose: 200.0 mg/kg/injection, schedule: Q01DX009 (ip), vehicle: Klucel (hydroxypropylcellulose) (HPC)
[6] = dose: 60.0 mg/kg/injection, schedule: Q01DX005 (ip), vehicle: Klucel (hydroxypropylcellulose) (HPC)
[7] = dose: 120.0 mg/kg/injection, schedule: Q01DX005 (ip), vehicle: Klucel (hydroxypropylcellulose) (HPC)
[8] = dose: 50.0 mg/kg/injection, schedule: Q01DX005 (ip), vehicle: saline with Tween-80
[9] = dose: 100.0 mg/kg/injection, schedule: Q01DX005 (ip), vehicle: saline with Tween-80
[10] = dose: 200.0 mg/kg/injection, schedule: Q01DX005 (ip), vehicle: saline with Tween-80
[11] = dose: 50.0 mg/kg/injection, schedule: Q01DX009 (ip), vehicle: saline with Tween-80
[12] = dose: 100.0 mg/kg/injection, schedule: Q01DX009 (ip), vehicle: saline with Tween-80
[13] = dose: 200.0 mg/kg/injection, schedule: Q01DX009 (ip), vehicle: saline with Tween-80
[14] = dose: 50.0 mg/kg/injection, schedule: Q01DX005 (ip), vehicle: Klucel (hydroxypropylcellulose) (HPC)
[15] = dose: 25.0 mg/kg/injection, schedule: Q01DX009 (ip), vehicle: saline with Tween-80
[16] = dose: 200.0 mg/kg/injection, schedule: Q04DX003 (ip), vehicle: saline with Tween-80
[17] = dose: 60.0 mg/kg/injection, schedule: Q01DX005 (ip), vehicle: saline with Tween-80
[18] = dose: 120.0 mg/kg/injection, schedule: Q01DX005 (ip), vehicle: saline with Tween-80
[19] = dose: 240.0 mg/kg/injection, schedule: Q01DX005 (ip), vehicle: saline with Tween-80
[20] = dose: 100.0 mg/kg/injection, schedule: Q04DX002 (ip), vehicle: saline with Tween-80
[21] = dose: 200.0 mg/kg/injection, schedule: Q04DX002 (ip), vehicle: saline with Tween-80

With `Cn1c(=O)c2[nH]c(Cc3ccc4c(c3)OCO4)nc2n(C)c1=O` the T/C [1] was 98 % of control, the T/C (dose: 3.13 mg/kg/injection, schedule: Q01DX009 (ip), vehicle: Klucel (hydroxypropylcellulose) (HPC)) was 97 % of control and the T/C [2] was 95 % of control. The T/C (dose: 12.5 mg/kg/injection, schedule: Q01DX009 (ip), vehicle: Klucel (hydroxypropylcellulose) (HPC)) was 101 % of control, the T/C (dose: 25.0 mg/kg/injection, schedule: Q01DX009 (ip), vehicle: Klucel (hydroxypropylcellulose) (HPC)) was 104 % of control and the T/C [3] was 87 % of control. For the same compound, the T/C [4] was 107 % of control and the T/C [5] was 100 % of control.

For `C=C1C[C@]23C[C@@]1(O)CC[C@H]2[C@]12C=C[C@H](O1)C(C(=O)OCC)=C2[C@@H]3O`, the T/C [6] was 108 % of control, the T/C [7] was 115 % of control and the T/C (dose: 240.0 mg/kg/injection, schedule: Q01DX005 (ip), vehicle: Klucel (hydroxypropylcellulose) (HPC)) was 120 % of control.

`O=C1C=C[C@H](O)[C@@]2(CO)O[C@@H]12` was tested, and the T/C (dose: 1.25 mg/kg/injection, schedule: Q04DX002 (ip), vehicle: saline) was 103 % of control, the T/C (dose: 2.5 mg/kg/injection, schedule: Q04DX002 (ip), vehicle: saline with Tween-80) was 114 % of control and the T/C (dose: 2.5 mg/kg/injection, schedule: Q04DX002 (ip), vehicle: saline) was 104 % of control.

With `OCC1OC(n2cnc3c(I)ncnc32)C(O)C1O` (stereo unspecified) the T/C [8] was 100 % of control, the T/C [9] was 103 % of control and the T/C [10] was 101 % of control.

For `CCC1=CCC2C(=O)C3C(C(=O)C2C1)C1(c2ccccc2)OC3(c2ccccc2)c2ccccc21` (stereo unspecified), the T/C [11] was 95 % of control, the T/C [12] was 88 % of control and the T/C [13] was 87 % of control.

For `COc1cccc2c1C(=O)c1c(O)c3c(c(O)c1C2=O)CC(O)(C(=O)CO)CC3OC1CC2C(OC3COCC(C#N)N32)C(C)O1` (stereo unspecified), the T/C (dose: 0.5 mg/kg/injection, schedule: Q04DX003 (ip), vehicle: saline with Tween-80) was 102 % of control and 120 % of control, the T/C (dose: 1.0 mg/kg/injection, schedule: Q04DX003 (ip), vehicle: saline with Tween-80) was 116 % of control and the T/C (dose: 4.0 mg/kg/injection, schedule: Q04DX003 (ip), vehicle: saline with Tween-80) was 113 % of control.

For `C1=NCc2ccsc2-n2cccc21`, the T/C (dose: 25.0 mg/kg/injection, schedule: Q01DX005 (ip), vehicle: Klucel (hydroxypropylcellulose) (HPC)) was 100 % of control and the T/C [14] was 105 % of control.

With `Cn1cnc(=O)c2n[nH]nc21` the T/C [14] was 100 % of control, the T/C (dose: 100.0 mg/kg/injection, schedule: Q01DX005 (ip), vehicle: Klucel (hydroxypropylcellulose) (HPC)) was 100 % of control and the T/C (dose: 200.0 mg/kg/injection, schedule: Q01DX005 (ip), vehicle: Klucel (hydroxypropylcellulose) (HPC)) was 87 % of control.

With `CC1(CNC(=O)C(=O)NCC2(C)CO2)CO1` (stereo unspecified) the T/C (dose: 6.25 mg/kg/injection, schedule: Q04DX003 (ip), vehicle: saline with Tween-80) was 90 % of control, the T/C (dose: 17.5 mg/kg/injection, schedule: Q04DX003 (ip), vehicle: saline with Tween-80) was 109 % of control and the T/C [15] was 150 % of control. The T/C (dose: 25.0 mg/kg/injection, schedule: Q04DX003 (ip), vehicle: saline with Tween-80) was 122 % of control, the T/C [11] was 172 % of control and the T/C [12] was 186 % of control. The T/C (dose: 100.0 mg/kg/injection, schedule: Q04DX003 (ip), vehicle: saline with Tween-80) was 168 % of control, the T/C (dose: 132.0 mg/kg/injection, schedule: Q04DX003 (ip), vehicle: saline with Tween-80) was 172 % of control and the T/C [16] was 163 % of control and 195 % of control. The T/C (dose: 300.0 mg/kg/injection, schedule: Q04DX003 (ip), vehicle: saline with Tween-80) was 195 % of control and the T/C (dose: 400.0 mg/kg/injection, schedule: Q04DX003 (ip), vehicle: saline with Tween-80) was 109 % of control.

`CCN(CC)C(=O)C(F)C(F)(F)C(F)(F)C(F)C(=O)N(CC)CC` (stereo unspecified) was tested, and the T/C [3] was 108 % of control, the T/C [4] was 99 % of control and the T/C [5] was 98 % of control.

`CCCNc1nc2c(c(=O)n1-c1ccccc1)C=C(C(=O)OC)CCN2S(=O)(=O)c1ccc(C)cc1` was tested, and the T/C [17] was 108 % of control, the T/C [18] was 101 % of control and the T/C [19] was 105 % of control.

With `COC(SC)c1cc(-c2c(Cl)cccc2Cl)no1` (stereo unspecified) the T/C [17] was 93 % of control, the T/C [18] was 103 % of control and the T/C [19] was 107 % of control.

For `CCC(C)Nc1ccc(N)cc1` (stereo unspecified), the T/C (dose: 0.1 mg/kg/injection, schedule: Q01DX009 (ip), vehicle: carboxymethylcellulose (CMC)) was 115 % of control, the T/C (dose: 0.39 mg/kg/injection, schedule: Q01DX009 (ip), vehicle: Klucel (hydroxypropylcellulose) (HPC)) was 95 % of control and the T/C (dose: 0.4 mg/kg/injection, schedule: Q01DX009 (ip), vehicle: carboxymethylcellulose (CMC)) was 111 % of control. For the same compound, the T/C (dose: 0.78 mg/kg/injection, schedule: Q01DX009 (ip), vehicle: Klucel (hydroxypropylcellulose) (HPC)) was 102 % of control, the T/C [1] was 104 % of control and 110 % of control and the T/C (dose: 3.12 mg/kg/injection, schedule: Q01DX009 (ip), vehicle: Klucel (hydroxypropylcellulose) (HPC)) was 100 % of control and 119 % of control. For the same compound, the T/C [2] was 108 % of control and 112 % of control.

`CCCCCCCCCCCCCCCCOc1ccc(-c2cc(Cl)c3cc(S(=O)(=O)F)ccc3n2)cc1S(=O)(=O)F` was tested, and the T/C [11] was 86 % of control, the T/C (dose: 50.0 mg/kg/injection, schedule: Q04DX003 (ip), vehicle: saline with Tween-80) was 90 % of control and the T/C [13] was 90 % of control. The T/C [16] was 90 % of control.

For `COc1ccc(Cc2cc3c(cc2OCCO)OCO3)cc1`, the T/C [8] was 105 % of control, the T/C [9] was 103 % of control and the T/C [10] was 109 % of control.

In the case of `Cc1cc2c(c3ccccc13)C(=N/N=C(N)N)/C(=N/N=C(N)N)C2`, the T/C (dose: 6.25 mg/kg/injection, schedule: Q01DX009 (ip), vehicle: saline with Tween-80) was 101 % of control, the T/C (dose: 12.5 mg/kg/injection, schedule: Q01DX009 (ip), vehicle: saline with Tween-80) was 108 % of control and the T/C (dose: 25.0 mg/kg/injection, schedule: Q01DX001 (ip), vehicle: saline with Tween-80) was 105 % of control. For the same compound, the T/C [15] was 101 % of control and the T/C (dose: 50.0 mg/kg/injection, schedule: Q01DX001 (ip), vehicle: saline with Tween-80) was 97 % of control.

For `COc1ccc(-n2cnc3c(cnn3CN3CCCCC3)c2=O)cc1`, the T/C [6] was 104 % of control and the T/C [7] was 103 % of control.

For `O=c1[nH]cc(N(CCCl)CCCl)c(=O)[nH]1`, the T/C (dose: 0.05 mg/kg/injection, schedule: Q01DX009 (ip), vehicle: saline with Tween-80) was 109 % of control, the T/C (dose: 0.08 mg/kg/injection, schedule: Q01DX009 (ip), vehicle: saline with Tween-80) was 109 % of control and the T/C (dose: 0.39 mg/kg/injection, schedule: Q01DX009 (ip), vehicle: saline with Tween-80) was 181 % of control. The T/C (dose: 0.65 mg/kg/injection, schedule: Q01DX009 (ip), vehicle: saline with Tween-80) was 181 % of control, the T/C (dose: 1.1 mg/kg/injection, schedule: Q01DX009 (ip), vehicle: saline with Tween-80) was 236 % of control and the T/C (dose: 1.8 mg/kg/injection, schedule: Q01DX009 (ip), vehicle: saline with Tween-80) was 227 % of control. For the same compound, the T/C (dose: 3.0 mg/kg/injection, schedule: Q01DX009 (ip), vehicle: saline with Tween-80) was 118 % of control.

With `Cc1cccc(N=Nc2c(C)nn(C(=S)S)c2C)c1C` the T/C [20] was 100 % of control, the T/C [21] was 99 % of control and the T/C (dose: 400.0 mg/kg/injection, schedule: Q04DX002 (ip), vehicle: saline with Tween-80) was 98 % of control.

For `CCOC(=O)C1=C(C)O/C(=C\c2cccc(C(F)(F)F)c2)C1=O`, the T/C [8] was 108 % of control and the T/C [9] was 109 % of control.

With `COc1ccc(C2CC(=O)N(c3ccncc3)C(=O)C2)cc1` the T/C (dose: 50.0 mg/kg/injection, schedule: Q04DX002 (ip), vehicle: saline with Tween-80) was 115 % of control, the T/C [20] was 95 % of control and the T/C [21] was 90 % of control.

For `COc1cccc(C2c3cc4c(cc3OC(C)(N3CCCC3)C2C)OCO4)c1OC` (stereo unspecified), the T/C [6] was 99 % of control and the T/C [7] was 88 % of control.
